Activity calls are given as the source filed them.
Experiments:
Toll-like receptor 4 [1] = biological target: T1, Toll-like receptor 4 (Homo sapiens, UniProt O00206); test: Antagonist activity at TLR4 in human THP1 cells assessed as inhibition of LPS-stimulated IL-6 mRNA level at 10 uM after 16 hrs by RT-PCR method; format: cell-based
Toll-like receptor 4 [2] = biological target: T1, Toll-like receptor 4; test: Antagonist activity at TLR4 in human THP1 cells assessed as inhibition of LPS-stimulated RANTES mRNA level at 10 uM after 16 hrs by RT-PCR method; format: cell-based
Toll-like receptor 4 [3] = biological target: T1, Toll-like receptor 4; test: Antagonist activity at TLR4 (unknown origin) expressed in human AD293 cells assessed as inhibition of LPS/ATP-stimulated TLR4/NF-kB signaling pathway at 10 uM after 16 hrs by luciferase reporter gene assay; format: cell-based
AD293 [4] = test: Cytotoxicity against human AD293 cells assessed as reduction in cell viability at 10 uM after 24 hrs by methylene blue dye based spectrophotometric method; conditions: ad293, 24 h
THP-1 [5] = test: Effect on RelB protein expression in human THP1 cells at 10 uM after 3 hrs by Western blot analysis; format: functional, cell-based
Toll-like receptor 4 [6] = biological target: T1, Toll-like receptor 4; test: Antagonist activity at TLR4 (unknown origin) expressed in human AD293 cells assessed as inhibition of LPS/ATP-stimulated TLR4/NF-kB signaling pathway after 16 hrs by luciferase reporter gene assay; format: cell-based
Homo sapiens = species: Homo sapiens; test: Inhibition of TNFalpha-stimulated NF-kB signaling pathway (unknown origin) expressed in human AD293 cells after 4 hrs by luciferase reporter gene assay; format: cell-based
AD293 [7] = test: Cytotoxicity against human AD293 cells assessed as reduction in cell viability after 24 hrs by methylene blue dye based spectrophotometric method; conditions: ad293, 24 h
[8] = biological target: Toll-like receptor 3 (Homo sapiens) (UniProt O15455); test: Antagonist activity at TLR3 in human THP1 cells assessed as inhibition of poly IC-stimulated IL-6 mRNA level at 10 uM after 16 hrs by RT-PCR method; format: cell-based
Chain of Toll-like receptor 3 (Homo sapiens) (O15455 whole entry): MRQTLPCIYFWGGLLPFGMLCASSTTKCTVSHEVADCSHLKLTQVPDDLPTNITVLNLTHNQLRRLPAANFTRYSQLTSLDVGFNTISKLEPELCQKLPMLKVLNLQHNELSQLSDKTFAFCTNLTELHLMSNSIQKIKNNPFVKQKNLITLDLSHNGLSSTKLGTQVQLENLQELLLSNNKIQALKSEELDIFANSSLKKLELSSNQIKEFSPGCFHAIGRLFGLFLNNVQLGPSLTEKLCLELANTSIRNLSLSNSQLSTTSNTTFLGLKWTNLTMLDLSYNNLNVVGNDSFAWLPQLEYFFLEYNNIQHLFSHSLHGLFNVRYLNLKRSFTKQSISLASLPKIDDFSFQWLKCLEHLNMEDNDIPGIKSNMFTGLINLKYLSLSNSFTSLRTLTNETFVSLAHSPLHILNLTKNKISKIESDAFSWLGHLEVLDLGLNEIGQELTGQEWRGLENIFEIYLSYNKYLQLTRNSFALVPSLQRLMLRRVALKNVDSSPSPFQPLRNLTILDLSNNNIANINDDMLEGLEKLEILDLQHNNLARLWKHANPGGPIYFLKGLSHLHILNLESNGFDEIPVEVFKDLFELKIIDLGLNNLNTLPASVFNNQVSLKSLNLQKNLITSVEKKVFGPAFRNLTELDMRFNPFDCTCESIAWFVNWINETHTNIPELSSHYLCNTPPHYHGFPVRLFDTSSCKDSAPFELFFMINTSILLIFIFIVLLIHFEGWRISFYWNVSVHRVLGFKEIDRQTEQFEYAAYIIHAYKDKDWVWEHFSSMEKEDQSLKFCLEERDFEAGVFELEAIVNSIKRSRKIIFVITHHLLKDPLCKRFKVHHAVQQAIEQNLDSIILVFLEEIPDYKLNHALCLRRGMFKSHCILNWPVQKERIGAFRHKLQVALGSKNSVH

[9] = biological target: Toll-like receptor 3 (Homo sapiens) (UniProt O15455); test: Antagonist activity at TLR3 in human THP1 cells assessed as inhibition of poly IC-stimulated RANTES mRNA level at 10 uM after 16 hrs by RT-PCR method; format: cell-based
[10] = biological target: Toll-like receptor 2 (Homo sapiens) (UniProt O60603); test: Antagonist activity at TLR2 in human THP1 cells assessed as inhibition of PGN-stimulated IL-6 mRNA level at 10 uM after 16 hrs by RT-PCR method; format: cell-based
Chain of Toll-like receptor 2 (Homo sapiens) (O60603 whole entry): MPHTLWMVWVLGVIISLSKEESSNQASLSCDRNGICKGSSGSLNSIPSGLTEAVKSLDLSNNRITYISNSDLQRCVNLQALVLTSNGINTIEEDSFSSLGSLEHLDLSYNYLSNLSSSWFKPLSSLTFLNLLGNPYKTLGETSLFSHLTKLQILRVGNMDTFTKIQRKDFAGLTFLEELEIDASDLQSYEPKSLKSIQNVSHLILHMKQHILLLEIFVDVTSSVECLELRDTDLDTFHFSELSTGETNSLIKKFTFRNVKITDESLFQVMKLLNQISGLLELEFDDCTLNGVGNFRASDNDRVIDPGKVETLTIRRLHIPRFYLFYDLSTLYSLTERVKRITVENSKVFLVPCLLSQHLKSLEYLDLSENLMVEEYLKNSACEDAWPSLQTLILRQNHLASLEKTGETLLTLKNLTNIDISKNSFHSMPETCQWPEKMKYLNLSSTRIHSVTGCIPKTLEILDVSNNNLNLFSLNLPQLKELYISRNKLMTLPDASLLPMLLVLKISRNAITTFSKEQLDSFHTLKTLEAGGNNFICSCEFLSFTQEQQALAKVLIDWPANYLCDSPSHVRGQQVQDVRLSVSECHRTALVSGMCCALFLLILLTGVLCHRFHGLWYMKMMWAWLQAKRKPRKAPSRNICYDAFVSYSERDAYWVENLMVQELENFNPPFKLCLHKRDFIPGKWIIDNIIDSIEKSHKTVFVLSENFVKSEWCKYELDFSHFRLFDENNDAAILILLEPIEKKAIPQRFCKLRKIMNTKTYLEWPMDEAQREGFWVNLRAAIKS

[11] = biological target: Toll-like receptor 2 (Homo sapiens) (UniProt O60603); test: Antagonist activity at TLR2 in human THP1 cells assessed as inhibition of PGN-stimulated RANTES mRNA level at 10 uM after 16 hrs by RT-PCR method; format: cell-based
Toll-like receptor 4 [12] = biological target: T1, Toll-like receptor 4; test: Antagonist activity at TLR4 in human THP1 cells assessed as inhibition of LPS-stimulated IL-1beta level at 10 uM by bead based immunoassay; format: cell-based
Toll-like receptor 4 [13] = biological target: T1, Toll-like receptor 4; test: Antagonist activity at TLR4 in human THP1 cells assessed as inhibition of LPS-stimulated TNFalpha level at 10 uM by bead based immunoassay; format: cell-based
Toll-like receptor 4 [14] = biological target: T1, Toll-like receptor 4; test: Antagonist activity at TLR4 in human THP1 cells assessed as inhibition of LPS-stimulated IL-6 level at 10 uM by bead based immunoassay; format: cell-based
[15] = biological target: Toll-like receptor 3 (Homo sapiens) (UniProt O15455); test: Antagonist activity at TLR3 in human THP1 cells assessed as inhibition of poly IC-stimulated IL-1beta level at 10 uM by bead based immunoassay; format: cell-based
[16] = biological target: Toll-like receptor 3 (Homo sapiens) (UniProt O15455); test: Antagonist activity at TLR3 in human THP1 cells assessed as inhibition of poly IC-stimulated TNFalpha level at 10 uM by bead based immunoassay; format: cell-based
[17] = biological target: Toll-like receptor 2 (Homo sapiens) (UniProt O60603); test: Antagonist activity at TLR2 in human THP1 cells assessed as inhibition of PGN-stimulated IL-1beta level at 10 uM by bead based immunoassay; format: cell-based
[18] = biological target: Toll-like receptor 2 (Homo sapiens) (UniProt O60603); test: Antagonist activity at TLR2 in human THP1 cells assessed as inhibition of PGN-stimulated TNFalpha level at 10 uM by bead based immunoassay; format: cell-based
[19] = biological target: Transcription factor p65 (Homo sapiens) (UniProt Q04206); test: Inhibition of TNFalpha-stimulated NF-kB p65 activation (unknown origin) expressed in human AD293 cells assessed as nuclear translocation of p65 at 10 uM after 3 hrs by confocal microscopic method; format: cell-based
Chain of Transcription factor p65 (Homo sapiens) (Q04206 whole entry): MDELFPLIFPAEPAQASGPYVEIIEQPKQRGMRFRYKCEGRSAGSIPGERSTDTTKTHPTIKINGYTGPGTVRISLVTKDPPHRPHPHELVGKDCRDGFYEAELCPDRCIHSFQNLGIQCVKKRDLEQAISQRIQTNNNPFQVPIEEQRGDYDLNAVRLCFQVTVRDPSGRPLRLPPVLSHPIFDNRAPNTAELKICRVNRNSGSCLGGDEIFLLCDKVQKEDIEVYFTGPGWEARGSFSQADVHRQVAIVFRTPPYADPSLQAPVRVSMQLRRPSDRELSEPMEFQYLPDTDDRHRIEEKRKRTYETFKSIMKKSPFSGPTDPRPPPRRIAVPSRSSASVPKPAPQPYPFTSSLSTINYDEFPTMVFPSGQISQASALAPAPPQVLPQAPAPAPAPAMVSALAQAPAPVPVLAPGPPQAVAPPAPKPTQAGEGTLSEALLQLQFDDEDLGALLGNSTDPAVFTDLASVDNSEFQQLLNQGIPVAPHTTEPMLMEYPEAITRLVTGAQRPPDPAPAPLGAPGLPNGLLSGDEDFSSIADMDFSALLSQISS

[20] = biological target: Transcription factor p65 (Homo sapiens) (UniProt Q04206); test: Inhibition of TNFalpha-stimulated NF-kB p65 phosphorylation (unknown origin) expressed in human AD293 cells at 10 uM after 3 hrs by Western blot analysis; format: cell-based
[21] = biological target: T2, NF-kappa-B inhibitor alpha (Homo sapiens) (UniProt P25963); test: Inhibition of TNFalpha-stimulated IkBalpha phosphorylation in human AD293 cells at 10 uM after 3 hrs by Western blot analysis; format: cell-based
T2 sequence (whole entry): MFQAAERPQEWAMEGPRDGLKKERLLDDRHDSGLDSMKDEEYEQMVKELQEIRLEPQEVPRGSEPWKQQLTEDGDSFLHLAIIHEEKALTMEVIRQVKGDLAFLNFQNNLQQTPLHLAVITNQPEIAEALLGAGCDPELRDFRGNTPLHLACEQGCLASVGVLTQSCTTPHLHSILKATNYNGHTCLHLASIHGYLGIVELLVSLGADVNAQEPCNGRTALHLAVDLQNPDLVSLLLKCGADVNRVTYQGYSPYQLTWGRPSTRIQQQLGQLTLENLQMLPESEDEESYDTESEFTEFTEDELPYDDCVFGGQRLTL

AD293 [22] = test: Effect on IkBalpha protein expression in TNFalpha-stimulated human AD293 cells at 10 uM after 3 hrs by Western blot analysis; format: functional, cell-based
[23] = biological target: Transcription factor p65 (Homo sapiens) (UniProt Q04206); test: Upregulation of NF-kB p65 phosphorylation (unknown origin) expressed in human AD293 cells at 10 uM after 3 hrs by Western blot analysis; format: cell-based
Toll-like receptor 4 [24] = biological target: T1, Toll-like receptor 4; test: Antagonist activity at TLR4 in human THP1 cells assessed as increase in LPS-stimulated NFkappaB p65 phosphorylation at 10 uM after 3 hrs by Western blot analysis; format: cell-based
THP-1 [25] = test: Downregulation of IkBalpha protein expression in LPS-stimulated human THP1 cells at 10 uM after 3 hrs by Western blot analysis; format: functional, cell-based
THP-1 [26] = test: Downregulation of IkBalpha protein expression in human THP1 cells at 10 uM after 3 hrs by Western blot analysis; format: functional, cell-based
Toll-like receptor 4 [27] = biological target: T1, Toll-like receptor 4; test: Antagonist activity at TLR4 in human THP1 cells assessed as inhibition of LPS-stimulated NF-kB canonical signaling pathway by measuring decrease in IkBalpha phosphorylation at 10 uM after 3 hrs by Western blot analysis; format: cell-based
THP-1 [28] = test: Upregulation of IKKalpha protein expression in LPS-stimulated human THP1 cells at 10 uM after 3 hrs by Western blot analysis; format: functional, cell-based
THP-1 [29] = test: Upregulation of IKKalpha protein expression in human THP1 cells at 10 uM after 3 hrs by Western blot analysis; format: functional, cell-based
AD293 [30] = test: Upregulation of IKKalpha protein expression in TNFalpha-stimulated human AD293 cells at 10 uM after 3 hrs by Western blot analysis; format: functional, cell-based
AD293 [31] = test: Upregulation of IKKalpha protein expression in human AD293 cells at 10 uM after 3 hrs by Western blot analysis; format: functional, cell-based
Toll-like receptor 4 [32] = biological target: T1, Toll-like receptor 4; test: Antagonist activity at TLR4 in human THP1 cells assessed as inhibition of LPS-stimulated NF-kB non-canonical signaling pathway by measuring decrease in RelB expression at 10 uM after 3 hrs by Western blot analysis; format: cell-based
Toll-like receptor 4 [33] = biological target: T1, Toll-like receptor 4; test: Antagonist activity at TLR4 in human THP1 cells harboring human TRAF6 assessed as inhibition of LPS-stimulated IL-1beta level at 10 uM by bead based immunoassay; format: cell-based
Toll-like receptor 4 [34] = biological target: T1, Toll-like receptor 4; test: Antagonist activity at TLR4 in human THP1 cells harboring human TRAF6 assessed as inhibition of LPS-stimulated TNFalpha level at 10 uM by bead based immunoassay; format: cell-based
Toll-like receptor 4 [35] = biological target: T1, Toll-like receptor 4; test: Antagonist activity at TLR4 in human THP1 cells harboring human TRAF6 assessed as inhibition of LPS-stimulated IL-6 level at 10 uM by bead based immunoassay; format: cell-based

T1 sequence (O00206 whole entry): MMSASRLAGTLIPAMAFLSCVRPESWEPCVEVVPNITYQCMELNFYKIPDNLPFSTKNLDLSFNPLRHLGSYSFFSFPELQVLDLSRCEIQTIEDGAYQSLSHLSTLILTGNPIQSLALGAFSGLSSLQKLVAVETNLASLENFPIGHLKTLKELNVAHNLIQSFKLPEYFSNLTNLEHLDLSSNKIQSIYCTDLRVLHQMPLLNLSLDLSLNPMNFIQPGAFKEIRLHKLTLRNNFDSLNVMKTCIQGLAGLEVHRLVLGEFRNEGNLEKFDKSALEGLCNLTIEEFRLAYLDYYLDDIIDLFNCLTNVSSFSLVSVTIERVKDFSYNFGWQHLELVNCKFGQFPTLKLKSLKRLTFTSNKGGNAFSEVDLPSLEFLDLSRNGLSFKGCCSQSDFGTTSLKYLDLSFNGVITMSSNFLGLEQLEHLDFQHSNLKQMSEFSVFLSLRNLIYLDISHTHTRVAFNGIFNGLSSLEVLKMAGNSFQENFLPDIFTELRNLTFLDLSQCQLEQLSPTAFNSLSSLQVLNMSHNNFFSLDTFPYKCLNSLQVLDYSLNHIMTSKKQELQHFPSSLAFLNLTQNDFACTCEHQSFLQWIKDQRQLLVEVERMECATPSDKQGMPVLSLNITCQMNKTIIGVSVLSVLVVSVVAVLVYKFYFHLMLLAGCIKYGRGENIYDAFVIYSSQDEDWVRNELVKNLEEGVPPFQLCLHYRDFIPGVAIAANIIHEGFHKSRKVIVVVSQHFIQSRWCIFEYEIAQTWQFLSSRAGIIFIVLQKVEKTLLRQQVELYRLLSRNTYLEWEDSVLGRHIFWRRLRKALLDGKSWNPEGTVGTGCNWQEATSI

CC(=O)[C@]1(O)CC[C@@]2(O)[C@]1(C)[C@H](OC(=O)/C=C(\C)C(C)C)C[C@@H]1[C@@]3(C)CC[C@H](OC(=O)c4ccc(Cl)nc4)CC3=CC[C@]12O
inactive: inhibition (Toll-like receptor 4 [1]) | inhibition (Toll-like receptor 4 [2])

CC(=O)[C@]1(OC(=O)c2ccccc2I)CC[C@@]2(O)[C@]1(C)[C@H](OC(=O)c1ccc(O)cc1)C[C@@H]1[C@@]3(C)CC[C@H](OC(=O)c4ccccc4I)CC3=CC[C@]12O
inactive: inhibition (Toll-like receptor 4 [3]) | inhibition (Toll-like receptor 4 [1]) | inhibition (Toll-like receptor 4 [2])
Toxic: Activity (AD293 [4])

C[C@@H](OC(=O)c1ccccc1O)[C@]1(O)CC[C@@]2(O)[C@]1(C)[C@H](OC(=O)/C=C/c1ccccc1)C[C@@H]1[C@@]3(C)CC[C@H](O)CC3=CC[C@]12O
inactive: inhibition [19] | inhibition [20] | inhibition [21] | Activity (AD293 [22]) | inhibition (Toll-like receptor 4 [24]) | inhibition (Toll-like receptor 4 [27]) | inhibition (Toll-like receptor 4 [33]) | inhibition (Toll-like receptor 4 [34]) | inhibition (Toll-like receptor 4 [35])
active: Activity (THP-1 [5]) | inhibition (Toll-like receptor 4 [1]) | inhibition (Toll-like receptor 4 [2]) | inhibition [8] | inhibition [9] | inhibition [10] | inhibition [11] | inhibition (Toll-like receptor 4 [12]) | inhibition (Toll-like receptor 4 [13]) | inhibition (Toll-like receptor 4 [14]) | inhibition [15] | inhibition [16] | inhibition [17] | inhibition [18] | Activity [23] | Activity (THP-1 [25]) | Activity (THP-1 [26]) | Activity (THP-1 [28]) | Activity (THP-1 [29]) | Activity (AD293 [30]) | Activity (AD293 [31]) | inhibition (Toll-like receptor 4 [32])
4.9 µM: EC50 (Toll-like receptor 4 [6])
> 10 µM: EC10 (Homo sapiens) | CC10 (AD293 [7])

CC(=O)[C@]1(O)CC[C@@]2(O)[C@]1(C)[C@H](OC(=O)c1ccccc1)C[C@@H]1[C@@]3(C)CC[C@H](O)CC3=CC[C@]12O
inactive: inhibition (Toll-like receptor 4 [1]) | inhibition (Toll-like receptor 4 [2])

CC(=O)O[C@H]1CC[C@@]2(C)C(=CC[C@]3(O)[C@@H]2C[C@@H](OC(=O)c2ccc(O)cc2)[C@@]2(C)[C@]3(O)CC[C@@]2(O)C(C)=O)C1
inactive: inhibition (Toll-like receptor 4 [1]) | inhibition (Toll-like receptor 4 [2])

CC(=O)[C@]1(O)CC[C@@]2(O)[C@]1(C)[C@H](OC(=O)/C=C(\C)C(C)C)C[C@@H]1[C@@]3(C)CC[C@H](OC(=O)/C=C/c4ccccc4)CC3=CC[C@]12O
inactive: inhibition (Toll-like receptor 4 [1]) | inhibition (Toll-like receptor 4 [2])
